# From US11548875B2, “Inhibitor compounds for male contraception” (University of Washington, priority 2018, dated 2023)
# Legend:
# ALDH2 = target: T1, ALDH2 (Homo sapiens, UniProt P05091); experiment: Purified ALDH2 assay with propanal, NADH fluorescence; format: biochemical; conditions: purified enzyme
# T1 construct: histidine-tag (N); made in house; host or cells: bacterial expression (pETite vector, IPTG induction)
# T1 sequence (P05091 18-517): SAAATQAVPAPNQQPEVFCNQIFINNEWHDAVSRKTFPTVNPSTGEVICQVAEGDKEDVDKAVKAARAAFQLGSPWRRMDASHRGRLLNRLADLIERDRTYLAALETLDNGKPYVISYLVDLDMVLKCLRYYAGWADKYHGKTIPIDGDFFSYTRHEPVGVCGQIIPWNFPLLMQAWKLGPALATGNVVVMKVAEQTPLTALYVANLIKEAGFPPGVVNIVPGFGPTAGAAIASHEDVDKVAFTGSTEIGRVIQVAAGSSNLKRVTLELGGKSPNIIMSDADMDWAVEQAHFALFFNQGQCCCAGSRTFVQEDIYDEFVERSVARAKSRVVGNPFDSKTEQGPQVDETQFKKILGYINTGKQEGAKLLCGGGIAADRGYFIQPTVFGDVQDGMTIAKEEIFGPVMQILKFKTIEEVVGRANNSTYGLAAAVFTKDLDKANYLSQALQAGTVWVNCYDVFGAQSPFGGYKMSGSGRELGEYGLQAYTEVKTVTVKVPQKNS
# Source text: ALDHs were cloned into bacterial expression vector for in vitro enzyme assays and into mammalian expression vectors for cell-based enzyme assays. Human ALDH1A1 cDNA and human ALDH2 cDNA were purchased from OriGene (SC321535) and Open Biosystems (MHS4771-99611182), respectively. and human ALDH1A2 cDNA was cloned from human testis RNA using RT-PCR (Population Division of the Department of Economic and Social Affairs of the United Nations Secretariat. World Population prospects: the 2008 revision. Available at http://www.un.org/esa/population/ (Retrieved Sep. 30, 2011)). For bacterial expression, an open reading frame of ALDH1A1 and ALDH2 were subcloned into the pETite vector (Lucigen) with a 5′ histidine-tag and that of ALDH1A2 into a pET28 vector (Novagen) with a 3′ histidine-tag. Correct frame and sequences were verified through DNA sequencing (UW DNA sequencing facility). ALDHs were induced with 1 mM IPTG and purified using His.Bind resin (Novagen, San Diego, Calif.) and stored in a buffer containing 20 mM Hepes (pH 8), 150 mM KCl and 1 mM EDTA as previously described (Fierce, Y., de Morais Vieira, M., Piantedosi, R., Wyss, A., Blaner, W. S., and Paik, J. (2008) In vitro and in vivo characterization of retinoid synthesis from beta-carotene. Archives of biochemistry and biophysics 472, 126-138). […]
# For this, 2 μg purified ALDH2, 20 μM propanal and varying concentrations of inhibitors were incubated at room temperature. Enzyme activity was determined by measuring fluorescence of NADH (Ex, 350 nm/Em, 460 nm) using a Victor3 plate reader (PerkinElmer), and initial velocity was calculated from two consecutive readings over 1 minute.
# ALDH1A2 = target: T2, ALDH1A2 (Homo sapiens, UniProt O94788); experiment: Inhibitor screening using purified enzymes: ALDH1A2 activity, retinoic acid production by HPLC (5 uM initial screen, then IC50); format: biochemical; parameters: histidine-tag (C); made in house; host or cells: bacterial expression (pET28 vector, IPTG induction); conditions: purified enzyme
# T2 sequence (O94788 1-518): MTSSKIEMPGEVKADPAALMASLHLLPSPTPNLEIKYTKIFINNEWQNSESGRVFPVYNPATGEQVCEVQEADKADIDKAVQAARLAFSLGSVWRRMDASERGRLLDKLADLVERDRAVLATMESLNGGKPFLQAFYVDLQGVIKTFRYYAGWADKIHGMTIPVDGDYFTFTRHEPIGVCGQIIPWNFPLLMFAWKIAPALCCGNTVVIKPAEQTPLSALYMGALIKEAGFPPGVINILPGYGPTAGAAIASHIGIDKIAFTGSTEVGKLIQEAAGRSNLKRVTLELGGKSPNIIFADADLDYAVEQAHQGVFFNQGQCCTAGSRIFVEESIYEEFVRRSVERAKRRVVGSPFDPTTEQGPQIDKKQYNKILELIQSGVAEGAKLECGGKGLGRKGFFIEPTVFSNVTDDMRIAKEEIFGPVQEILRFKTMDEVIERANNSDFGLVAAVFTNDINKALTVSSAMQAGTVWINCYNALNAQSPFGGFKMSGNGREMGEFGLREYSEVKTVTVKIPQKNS
# Source text: ALDHs were cloned into bacterial expression vector for in vitro enzyme assays and into mammalian expression vectors for cell-based enzyme assays. Human ALDH1A1 cDNA and human ALDH2 cDNA were purchased from OriGene (SC321535) and Open Biosystems (MHS4771-99611182), respectively. and human ALDH1A2 cDNA was cloned from human testis RNA using RT-PCR (Population Division of the Department of Economic and Social Affairs of the United Nations Secretariat. World Population prospects: the 2008 revision. Available at http://www.un.org/esa/population/ (Retrieved Sep. 30, 2011)). For bacterial expression, an open reading frame of ALDH1A1 and ALDH2 were subcloned into the pETite vector (Lucigen) with a 5′ histidine-tag and that of ALDH1A2 into a pET28 vector (Novagen) with a 3′ histidine-tag. Correct frame and sequences were verified through DNA sequencing (UW DNA sequencing facility). ALDHs were induced with 1 mM IPTG and purified using His.Bind resin (Novagen, San Diego, Calif.) and stored in a buffer containing 20 mM Hepes (pH 8), 150 mM KCl and 1 mM EDTA as previously described (Fierce, Y., de Morais Vieira, M., Piantedosi, R., Wyss, A., Blaner, W. S., and Paik, J. (2008) In vitro and in vivo characterization of retinoid synthesis from beta-carotene. Archives of biochemistry and biophysics 472, 126-138).
# ALDH1A1 and ALDH1A2 activity was determined as previously reported (Beedle M T, Stevison F, Zhong G, Topping T, Hogarth C, Isoherranen N, Griswold M D. Sources of All-Trans Retinal Oxidation Independent of the Aldehyde Dehydrogenase 1A Isozymes Exist in the Postnatal Testis. Biol Reprod. 2018 Sep. 21. doi: 10.1093/biolre/ioy200). Briefly, purified enzymes were incubated in a buffer containing 10 mM HEPES buffer (pH 8.0), 150 mM potassium chloride and 2 mM EDTA with 2 mM NAD. Retinoic acid production was determined using HPLC as previously reported (Amory J K, Muller C H, Shimshoni A J, Isoherranen N, Paik J, Moreb J S, Amory D W, Evanoff R, Goldstein A S, Griswold M D. Suppression of spermatogenesis by bisdichloroacetyldiamines is mediated by inhibition of testicular retinoic acid biosynthesis. Journal of Andrology 2011; 32(1):111-119). Inhibitors were diluted in DMSO and added to the reactions. […] For initial screening of inhibitors for ALDH1A2, 1 μg ALDH1A2, 5 μM all-trans-retinal and 5 μM inhibitors were incubated for 15 min at 37° C. […] For this purpose, 0.5 μg ALDH1A2 and […] were incubated for 5 minutes at 37° C. with varying concentrations of inhibitors. To determine specificity toward ALDH1A2, the IC50 for […]
Compound,IC50 (ALDH2) [µM],IC50 (ALDH1A2) [µM]
COC(=O)c1ccc(-c2nn(-c3ccccc3)cc2C=O)cc1 [Cmpd 33],0.077,0.198
"COc1cccc(NC(=O)c2cn(-c3ccccc3)nc2-c2ccc([N+](=O)[O-])cc2)c1 [Compound 103, N-(3-Methoxyphenyl)-3-(4-nitrophenyl)-1-phenyl-1H-pyrazole-4-carboxamide]",313,0.62
"O=C(Nc1cccc(F)c1)c1cn(-c2ccccc2)nc1-c1ccc([N+](=O)[O-])cc1 [Compound 106, N-(3-fluorophenyl)-3-(4-nitrophenyl)-1-phenyl-1H-pyrazole-4-carboxamide]",146,0.07
"O=C(Nc1ccccc1C(F)(F)F)c1cn(-c2ccccc2)nc1-c1ccc([N+](=O)[O-])cc1 [Compound 150, 3-(4-Nitrophenyl)-1-phenyl-N-[2-(trifluoromethyl)phenyl]-1H-pyrazole-4-carboxamide]",13,0.17
"O=C(Nc1cccc(C(F)(F)F)c1)c1cn(-c2ccccc2)nc1-c1ccc([N+](=O)[O-])cc1 [Compound 151, 3-(4-Nitrophenyl)-1-phenyl-N-[3-(trifluoromethyl)phenyl]-1H-pyrazole-4-carboxamide]",24.6,0.822
"O=C(Nc1ccccc1O)c1cn(-c2ccccc2)nc1-c1ccc([N+](=O)[O-])cc1 [Compound 165, N-(2-Hydroxyphenyl)-3-(4-nitrophenyl)-1-phenyl-1H-pyrazole-4-carboxamide]",23.3,0.211
"O=C(Nc1cccc(O)c1)c1cn(-c2ccccc2)nc1-c1ccc([N+](=O)[O-])cc1 [Compound 166, N-(3-Hydroxyphenyl)-3-(4-nitrophenyl)-1-phenyl-1H-pyrazole-4-carboxamide]",95.2,0.779
"O=C(Nc1ccc(O)cc1)c1cn(-c2ccccc2)nc1-c1ccc([N+](=O)[O-])cc1 [Compound 167, N-(4-Hydroxyphenyl)-3-(4-nitrophenyl)-1-phenyl-1H-pyrazole-4-carboxamide]",16.9,0.397
"Nc1cccc(NC(=O)c2cn(-c3ccccc3)nc2-c2ccc([N+](=O)[O-])cc2)c1 [Compound 173, N-(3-Aminophenyl)-3-(4-nitrophenyl)-1-phenyl-1H-pyrazole-4-carboxamide]",73.7,0.383
"CS(=O)(=O)c1ccc(-c2nn(-c3ccccc3)cc2C(=O)Nc2ccc(F)c(F)c2)cc1 [Compound 207, 3-(4-(Methylsulfonyl)phenyl)-N-(3,4-difluorophenyl)-1-phenyl-1H-pyrazole-4-carboxamide]",10.3,0.01
"CS(=O)(=O)c1ccc(-c2nn(-c3ccccc3)cc2C(=O)Nc2cccc(C(F)(F)F)c2)cc1 [Compound 208, 3-(4-(Methylsulfonyl)phenyl)-N-(3-trifluoromethylphenyl)-1-phenyl-1H-pyrazole-4-carboxamide]",145,0.01
"CC(=O)Oc1ccccc1NC(=O)c1cn(-c2ccccc2)nc1-c1ccc(S(C)(=O)=O)cc1 [Compound 210, N-(2-Acetoxyphenyl)-3-[4-(methylsulfonyl)phenyl]-1-phenyl-1H-pyrazole-4-carboxamide]",112,0.032
"COC(=O)c1cn(-c2ccccc2)nc1-c1ccc([N+](=O)[O-])cc1 [Compound 229, Methyl 3-(4-nitrophenyl)-1-phenyl-1H-pyrazole-4-carboxylate]",15.2,0.217
"CS(=O)(=O)c1ccc(-c2nn(-c3ccccc3F)cc2C(=O)Nc2ccccc2O)cc1 [Compound 238, N-(2-Hydroxphenyl)-3-[4-(methylsulfonyl)phenyl]-1-(2-fluoropheny)-1H-pyrazole-4-carboxamide]",40.9,–
"CS(=O)(=O)c1ccc(-c2nn(-c3cccc(Cl)c3)cc2C(=O)Nc2cccc(F)c2)cc1 [Compound 239, N-(3-Fluorophenyl)-3-[4-(methylsulfonyl)phenyl]-1-(3-chloropheny)-1H-pyrazole-4-carboxamide]",9.6,0.271
"CS(=O)(=O)c1ccc(-c2nn(-c3cccc(F)c3)cc2C(=O)Nc2ccccc2O)cc1 [Compound 243, N-(2-Hydroxyphenyl)-3-[4-(methylsulfonyl)phenyl]-1-(3-fluorophenyl)-1H-pyrazole-4-carboxamide]",62,0.076
"CS(=O)(=O)c1ccc(-c2nn(-c3cccc(F)c3)cc2C(=O)Nc2ccc(OC(F)(F)F)cc2)cc1 [Compound 246, N-(4-Trifluoromethoxyphenyl)-3-[4-(methylsulfonyl)phenyl]-1-(3-fluorophenyl)-1H-pyrazole-4-carboxamide]",61.2,0.119
"CS(=O)(=O)c1ccc(-c2nn(-c3cccc(F)c3)cc2C(=O)Nc2ccc(C#N)cc2)cc1 [Compound 249, N-(4-Cyanophenyl)-3-[4-(methylsulfonyl)phenyl]-1-(3-fluorophenyl)-1H-pyrazole-4-carboxamide]",35.9,0.038
"CS(=O)(=O)c1ccc(-c2nn(-c3cccc(F)c3)cc2C(=O)Nc2cccc(C(F)(F)F)c2)cc1 [Compound 250, N-(3-Trifluoromethyphenyl)-3-[4-(methylsulfonyl)phenyl]-1-(3-fluorophenyl)-1H-pyrazole-4-carboxamide]",85.8,0.291
